Measured values taken from patent publication US7235584B2, “Non-psychotropic cannabinoids” (Pharmos Corporation, priority 2000, dated 2007).
Read-outs that look alike come from different tables or passages of the source.

Key:
[1] = system: T1, nitric oxide synthase (NOS); test: Inhibition of nitric oxide synthase, fluorimetric nitrite assay in LPS-stimulated macrophage supernatants; format: cell-based; details: macrophage cell cultures
T1 construct: endogenous in cells
Experimental: As one aspect of the anti-oxidative potential of the novel analogs they were tested for their ability to inhibit the enzyme nitric oxide synthase (NOS). This assay can also serve as another indication of the anti-inflammatory cascade, as well as the anti-oxidative mechanisms.
The final products of NOS are Nitrite (NO2) and Nitrate (NO3). The in vitro fluorimetric assay provides an accurate method for the measurement of the Nitrite, which is the majority of NO products. The principle of the fluorimetric assay is based on the addition of DAN (2,3-diaminonaphthalene) to the aliquots of the supernatants collected from macrophage cell cultures incubated with the new analogs and stimulated with LPS. Following, NaOH was added to convert Nitrite to a fluorescent compound 1(H)-naphthtriazole. The fluorescence was measured immediately in a fluorimeter using excitation wavelength of 365 nm and an emission wavelength of 450 nm.

NMDA receptor = test: [3H]MK-801 displacement radioligand binding, rat forebrain membranes
Experimental: The identification of possible recognition sites for PRS-211 analogs was carried out by measuring the ability of these PRS-211 analogs to inhibit the binding of MK-801 to rat forebrain membranes.
Brains were removed from Sprague-Dawley rats no more than 5 min after decapitation. Membrane preparations were isolated according to a procedure described previously (Eshhar et al., Brain Res. 476:57, 1989). Prior to radioligand binding measurements, endogenous glutamate present in membranes was removed from the preparation by subjecting the membranes to 3–4 successive washings in 10 mM Tris HCl pH 7.2, performed at 4° C.
The specific binding of the new analogs to NMDA receptors was determined by their ability to displace [^3H]MK-801 from NMDA receptor in rat forebrain preparations. Specifically, rat-forebrain membranes (0.1 mg) were incubated for 2 hours at room temperature with 10 nM of tritiated MK-801 and with the PRS-211 compounds at 3 doses each. Non-specific binding was determined by the use of 0.1 mM MK-801. Following the incubation, bound radioligand was separated from unbound by filtration through GF/B filters. The filters were counted in a β-counter and log of analog concentrations versus % of [^3H]MK-801 specific binding was plotted. The IC50 was calculated from this plot.
Binding of [^3H]MK-801 to membranes was carried out in the presence of 30 μM glycine and 10 μM L-glutamate. Membranes (250 μg protein) were resuspended in 50 mM tris-acetate pH 7.4 buffer and incubated with 10 nM [^3H]MK-801, either alone or in the presence of PRS-211 compounds at 0.1–100 μM concentrations for three hours at room temperature (RT). Reaction buffers used in the different radioligand binding studies contained 10% of an ethanol/Emulphor 620/deionized water mixture. The ratio (by volume) of the respective components in the mixture was 20/3/57. This mixture is required for solubilizing PRS-211 compounds at concentrations above 30 μM. Reaction volume was 1 ml. Non-specific [^3H]MK-801 binding was determined in the presence of 100 μM unlabeled MK-801.
Concentration dependence of certain PRS-211 analogs on inhibition of [^3H]MK-801 binding is illustrated in FIG. 1.

TNFα = test: Inhibition of TNFα in LPS-activated macrophage cell cultures (ELISA); format: cell-based
Experimental: Specific aspects of the inflammatory response cascade are mediated by the cytokine TNFα. Inhibition of TNFα production and/or inhibition of TNFα release by the new analogs are assayed in macrophage cell cultures activated with LPS. This serves as another indication of the general anti-inflammatory potential of the novel compounds.
The method for macrophage cell culture growth is identical to the one described in PGE2 assay. Aliquots of the supernatants collected following stimulation with LPS were quantitated for TNFα by enzyme linked immunosorbent assay (ELISA) using HRP conjugated to anti-TNFα antibodies and […] for the colorimetric reaction. The peroxidase catalyzed color reaction was stopped by acidification and the absorbance at 450 nm is measured. The absorbance at this wavelength is proportional to the concentration of TNFα in the sample determined from a standard curve plotting the concentrations of TNFα standards versus their absorbance.

tail flick model in mice = test: Tail flick model: analgesic effect and tolerance to morphine; format: in vivo, ICR male mice
From the text: A mice model of acute pain, the tail flick model, was used to test the ability of compounds to prolong the analgesic activity of opioids, by preventing the development of tolerance, and their ability to reverse established tolerance.
The following animal model of acute pain was used to assess the potential analgesic effects of test compounds either alone or in combination with morphine. […] In this model the nociceptive stimulus is thermal and the latency time till the animal flicks its tail is monitored (Le Bars D., Gozariu M. & Cadden S. W., Pharmacol. Rev. 53: 597–652, 2001).
Hyperalgesia to radiant heat was assessed as follows. ICR male mice (20–30 g average body weight, Harlan, Israel) were injected with test compounds i.p. at the volume dose of 5 ml/kg. Each treatment group contained at least 6 animals. The test compounds were dissolved in Cremophor®:ethanol (70:30 weight/weight) and diluted 1:20 in saline prior to injection. Morphine HCl was directly dissolved in saline. Its vehicle was also included as control. Pain threshold was determined 30 minutes post-administration by measuring the foot-withdrawal latency defined as the time from the onset of radiant heat to foot withdrawal. The cut-off time was preset to 10 seconds in order to prevent tissue damage. […] Test compounds (5 mg/kg) and vehicle (5 ml/kg) were administered 15 minutes before morphine and pain threshold was determined 30 minutes after the first injection of morphine on day 1, 5, 8 and 10. […] Pain threshold was determined on day 1 and 10.
In each type of study, the animals were tested on given days 30 minutes after morphine injection in the tail flick apparatus (Socrel, model DS 20). Animals were gently held while their tails were located above the photoelectric cell. The tails were then illuminated (21V) at 2 cm from the distal tip and the latency time, measured in seconds, was recorded in duplicates. The results are expressed either as absolute latency time or as percent of animals that enjoyed significant analgesia as measured by the fact that their latency time is at least twice the latency time for vehicle treated animals. At the end of the study, the animals were euthanized by i.p. injection of 100 mg/kg sodium pentobarbitone.
The differences between the latency times among various treatment groups was analyzed by analysis of variance (ANOVA) followed by post-hoc Duncan test. The differences between the % of animals showing analgesia among various treatment groups was analyzed by analysis of variance (ANOVA) followed by post-hoc Fisher exact test. A value of p<0.05 is considered to be statistically significant.

transient MCAo in rats = test: Transient middle cerebral artery occlusion (MCAo), infarct size evaluation; format: in vivo; details: transient MCAo
From the text: The middle cerebral artery is the cerebral blood vessel most susceptible to stroke in humans. In animals, coagulation, permanent ligation or permanent placement of an occluding thread ink the artery produces a permanent focal stroke affecting the MCA territory. Transient ligation or occlusion results in transient focal stroke. Both transient and permanent focal strokes result in varying degrees of edema and infarction in the affected brain regions. The ability of compounds to reduce the volumes of edema and infarction is considered a measure of their potential as anti-stroke treatment.
• a. Male rats (8/treatment group) 320–380 gr. (Harlan Israel). • b. Halothane (Rhone Poulenc France) • c. Pentobarbitone (Pental Veterinary, CTS Israel). • d. Poly-L-Lysine (Sigma, USA). • e. Silk suture material 3-0 and 4-0. • f. Nylon (Polyamid) suture material 3-0. Four cm pieces were cut and positioned in a solution of 1% Poly-L-Lysine for 1 minute and dried in an oven (60 ° C.) for 60 minutes. The tip of each piece was rounded under a flame. • g. Saline (Teva Medical). • h. Blank cremophor ethanol cosolvent (Pharmos). • i. Dexanabinol in cremophor ethanol cosolvent 50 mg/ml. (Both Dexanabinol and its vehicle were diluted in saline prior to drug administration. • j. Analogs PRS-211,092, PRS-211,095, PRS-211,128 PRS-211,132 and PRS-211,220 in cremophor ethanol cosolvent, 50 mg/ml. • k. The analogs were diluted in saline prior to drug administration. Methods Transient MCAo
a. Surgical details of the MCAO method used for testing dexanabinol analogs, are presented in Belayev, et al., (Belayev, Busto, Weizhao, and Ginsberg, Stroke 26:2313–2319, 1995) which is incorporated herein in its entirety by reference.
b. Two hours after the start of MCAo, the animals were reanesthetized with halothane, the neck wound was re-opened and the nylon thread pulled out of the Internal carotid artery (ICA). The skin wound was then closed with 3-0 silk suture material and the animals allowed to recover from the anesthesia.
c. Three sets of animals were tested. In the first test immediately (2+0 hours) before thread removal the animals were injected IV with either analogs PRS 211,095, PRS 211,128, PRS 211,132, or Dexanabinol (PRS 211,007) each at a dosage of 5 mg/kg. One group of animals was treated with 5mi/kg vehicle alone. In another group, the animals subjected to “sham” operation, the suture was passed into the ICA, as described above, but immediately withdrawn. […] Laser Doppler Flow (LDF) determined the success of MCAo—a drop of more then 50% in cerebral blood flow was considered as a sign of successful MCAO. […]
A detailed investigation of neurological performance was carried out on the first, third and the 7th day after the MCAo. […] Animals were scored according to their performance: […]

[2] = displacement of [3H]MK-801, rat forebrain membranes, read-out: NMDA BINDING IC50

T1 sequence (P35228 whole entry): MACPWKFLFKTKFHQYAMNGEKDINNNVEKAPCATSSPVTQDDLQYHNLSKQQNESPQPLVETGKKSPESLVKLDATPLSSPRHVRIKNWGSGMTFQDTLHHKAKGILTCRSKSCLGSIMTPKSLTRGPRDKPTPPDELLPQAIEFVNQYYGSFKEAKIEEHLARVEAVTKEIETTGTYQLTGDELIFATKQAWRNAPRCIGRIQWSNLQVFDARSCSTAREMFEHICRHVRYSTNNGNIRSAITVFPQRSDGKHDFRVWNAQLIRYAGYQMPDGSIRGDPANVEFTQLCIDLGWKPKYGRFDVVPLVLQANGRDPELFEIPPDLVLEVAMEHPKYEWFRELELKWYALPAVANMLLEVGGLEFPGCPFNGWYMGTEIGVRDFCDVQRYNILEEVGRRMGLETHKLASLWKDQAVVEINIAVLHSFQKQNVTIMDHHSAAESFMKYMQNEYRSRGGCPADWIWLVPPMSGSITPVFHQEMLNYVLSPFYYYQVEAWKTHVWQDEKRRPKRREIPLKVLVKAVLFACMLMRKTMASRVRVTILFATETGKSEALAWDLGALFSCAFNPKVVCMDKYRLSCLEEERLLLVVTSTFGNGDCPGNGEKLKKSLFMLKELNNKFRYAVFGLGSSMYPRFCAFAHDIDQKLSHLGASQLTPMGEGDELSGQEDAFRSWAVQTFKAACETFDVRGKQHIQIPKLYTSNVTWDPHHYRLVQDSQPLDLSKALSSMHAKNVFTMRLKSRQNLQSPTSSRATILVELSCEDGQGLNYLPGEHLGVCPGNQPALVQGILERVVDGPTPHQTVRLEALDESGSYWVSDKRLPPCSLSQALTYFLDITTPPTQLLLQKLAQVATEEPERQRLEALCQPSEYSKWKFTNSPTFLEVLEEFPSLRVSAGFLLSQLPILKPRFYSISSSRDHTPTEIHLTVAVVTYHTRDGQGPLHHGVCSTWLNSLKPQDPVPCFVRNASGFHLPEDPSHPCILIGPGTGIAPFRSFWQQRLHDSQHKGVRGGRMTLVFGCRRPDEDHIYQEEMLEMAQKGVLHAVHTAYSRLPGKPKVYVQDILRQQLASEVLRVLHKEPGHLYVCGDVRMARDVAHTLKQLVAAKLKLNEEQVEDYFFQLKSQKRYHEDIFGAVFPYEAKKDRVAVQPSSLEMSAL

Row | Structure (SMILES) | inhibition at 10 µM [1] [%] | IC50 (NMDA receptor; [2]) [µM] | further results
1 | CCCCCCC(C)(C)c1cc(O)c2c(c1)OC(C)(C)[C@H]1CC=C(C[S+](C)[O-])C[C@H]21 (stereo partly drawn) [211,041-000] | 72 |  | 
2 | CCCCCCC(C)(C)c1cc(O)c2c(c1)OC(C)(C)[C@H]1CC=C(Cc3ccccc3)C[C@H]21 [211,119-000] | 0 |  | 
3 | CCCCCCC(C)(C)c1cc(O)c2c(c1)OC(C)(C)[C@H]1CC=C(CN(Cc3ccccc3)c3ccccc3)C[C@H]21 [211,255-000] | 7 | > 100 | NMDA receptor binding / affinity (in words) (NMDA receptor): do not exhibit substantial NMDA receptor binding; inhibition at 10 µM (TNFα): 0%
4 | CCCCCCC(C)(C)c1cc(O)c2c(c1)OC(C)(C)[C@H]1CC=C(CN3CCNC(C)C3)CC21 (stereo partly drawn) [211,134-000] |  | > 100 | 
5 | CCCCCCC(C)(C)c1cc(O)c2c(c1)OC(C)(C)[C@H]1CC=C(CN3CCC(N4CCCC4)CC3)C[C@H]21 [211,253-000] | 27 | > 100 | NMDA receptor binding / affinity (in words) (NMDA receptor): do not exhibit substantial NMDA receptor binding; inhibition at 10 µM (TNFα): 0%
6 | CN1CC[C@]23c4c5ccc(O)c4O[C@H]2[C@@H](O)C=C[C@H]3[C@H]1C5 [morphine, reference compound] |  |  | latency time (tail flick model in mice; 5 mg/kg, plain analgesic study, 30 minutes post-administration): 7.5 s
7 | CCCCCCC(C)(C)c1cc(O)c2c(c1)OC(C)(C)[C@H]1CC=C(CN3CCCCC3)C[C@H]21 [211,159-000] | 27 | > 20 | 
8 | CCCCCCC(C)(C)c1cc(O)c2c(c1)OC(C)(C)[C@H]1CC=C(CN3CCNCC3)CC21 (stereo partly drawn) [211,133-000] |  | > 100 | 
9 | CCCCCCC(C)(C)c1cc(O)c2c(c1)OC(C)(C)[C@H]1CC=C(CC#N)C[C@H]21 [211,006-000] | 19 |  | 
10 | CCCCCCC(C)(C)c1cc(O)c2c(c1)OC(C)(C)[C@H]1CC=C(CN3CCCC3)C[C@H]21 [211,128-000] | 27 | > 20 | function, reduction of mortality and brain morphometry (transient MCAo in rats): inactive; NMDA receptor binding / affinity (in words) (NMDA receptor): no detectable affinity; IC50 (NMDA receptor; rat forebrain membranes, read-out: mean IC50 of [3H]MK-801 binding (FIG. 2)): > 20 µM
11 | CCCCCCC(C)(C)c1cc(O)c2c(c1)OC(C)(C)[C@H]1CC=C(CN3CCOCC3)C[C@H]21 [211,132-000] | 40 |  | 
12 | COc1ccc2c(c1)[C@]13CCCC[C@@H]1[C@H](C2)N(C)CC3 [dextromethorphan, reference compound] |  |  | reversal of established tolerance to morphine (tail flick model in mice; in combination with morphine from day 11, tested day 12, 15, 17, PRS-211,220 5 mg/kg, dextromethorphan 20 mg/kg): statistically undistinguishable from morphine alone
13 | CCCCCCC(C)(C)c1cc(O)c2c(c1)OC(C)(C)[C@H]1CC=C(COCC(O)CO)C[C@H]21 (stereo partly drawn) [211,211-000] | 0 |  | 
14 | CCCCCCC(C)(C)c1cc(O)c2c(c1)OC(C)(C)[C@H]1CC=C(CN3CC=CCC3)C[C@H]21 [211,145-000] | 60 |  | 
15 | CCCCCCC(C)(C)c1cc(O)c2c(c1)OC(C)(C)[C@H]1CC=C(CN3CCN=C3SC)C[C@H]21 [211,204-000] | 85 |  | 
16 | CCCCCCC(C)(C)c1cc(O)c2c(c1)OC(C)(C)[C@H]1CC=C(CN3CC=CC3)C[C@H]21 [211,212-000] | 0 |  | 
